Test systems include COLO 205 colon; MDA-N; ACHN renal; PC-3 prostate; SK-MEL-5 melanoma; BT-549 breast; NCI-H23 lung; K-562 leukemia; SW-620 colon; MDA-MB-435; SF-268 CNS; SK-MEL-28 melanoma; NCI-H522 lung; TK-10 renal; CAKI-1 renal; MDA-MB-231 breast; UACC-62 melanoma; HOP-92 NSCLC; HT29 colon.
What all share (test): DTP human tumour cell line panel, 48 h

Values joined by “and” are separate entries in the source; they are usually repeats but may differ in a detail not shown here. Equal values may be shown once.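 Cells were grown in 96-well plates and exposed to each compound for 48 hours at five concentrations; endpoints were interpolated linearly between bracketing concentrations, or set to the highest concentration if not reached. At the TGI there is no net growth.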

On to `O=C(O)Cc1cccc2c1OC(c1ccccc1)C(C(=O)c1ccccc1)C2=O` (stereo not drawn), for which the TGI with COLO 205 colon, with MDA-N, with ACHN renal, with PC-3 prostate, with SK-MEL-5 melanoma and in the test with BT-549 breast was > 100 µM throughout. Also, the TGI in the test with NCI-H23 lung, in the test with K-562 leukemia, in the test with SW-620 colon, in the test on MDA-MB-435, in the test on SF-268 CNS and in the test on SK-MEL-28 melanoma was > 100 µM throughout. For the same molecule, the TGI (usually the concentration at which net growth stops) in the test on NCI-H522 lung was > 100 µM; with TK-10 renal, 79.9 µM; in the test on CAKI-1 renal, > 100 µM; in the test on MDA-MB-231 breast, > 100 µM; in the test on UACC-62 melanoma, 48.7 µM.

In the case of `Cc1cc2c(cc1C)C(=O)C1(C2)Cc2c(ccc(C)c2C)C1=O` (stereo not drawn), the TGI in the test with COLO 205 colon, with MDA-N, with ACHN renal, in the test on PC-3 prostate, in the test on SK-MEL-5 melanoma and in the test with BT-549 breast was > 100 µM each time. Besides, the TGI with K-562 leukemia, with SW-620 colon, in the test with HOP-92 NSCLC, in the test on MDA-MB-435, with SF-268 CNS and in the test with SK-MEL-28 melanoma was > 100 µM in each case. Also, the TGI with NCI-H522 lung, with TK-10 renal, with CAKI-1 renal, in the test on MDA-MB-231 breast and in the test with UACC-62 melanoma was > 100 µM in each case.

`O=C(Nc1nnc(-c2c(Cl)c(Cl)c(Cl)c(Cl)c2-c2nc3cc(C(=O)c4ccccc4)ccc3[nH]2)o1)c1ccccc1`: the concentration for total growth inhibition (TGI) came out at 24.5 µM in the test on COLO 205 colon; 12.6 µM with MDA-N; 55.6 µM in the test with ACHN renal; 28.3 µM in the test with PC-3 prostate; 18.5 µM in the test with SK-MEL-5 melanoma; 73.4 µM in the test with BT-549 breast. The TGI in the test with NCI-H23 lung was 54.2 µM; with K-562 leukemia it was > 100 µM; in the test with SW-620 colon it was > 100 µM; in the test with HOP-92 NSCLC, 44.5 µM; in the test with MDA-MB-435, 30.8 µM; in the test on SK-MEL-28 melanoma it was 45.4 µM. Also, the TGI with TK-10 renal is 50.7 µM; with HT29 colon, 63.6 µM; with CAKI-1 renal it was > 100 µM; in the test on MDA-MB-231 breast, 33.7 µM.

As for `O=C1c2ccccc2C(=O)c2c1ccc(C(=O)O)c2-c1ccc2ccccc2c1`, the TGI was 30.1 µM in the test with COLO 205 colon; 79.2 µM in the test with MDA-N; > 100 µM in the test on ACHN renal; 72.4 µM in the test with PC-3 prostate; 39.4 µM in the test on SK-MEL-5 melanoma; 68.3 µM in the test with BT-549 breast. Further, the TGI with NCI-H23 lung is 46.5 µM; in the test with K-562 leukemia, 85.7 µM; in the test on SW-620 colon, 89.5 µM; in the test on MDA-MB-435, 60 µM; with SF-268 CNS, 98.1 µM; in the test on SK-MEL-28 melanoma, > 100 µM. The TGI was 59.3 µM in the test on NCI-H522 lung; > 100 µM with TK-10 renal; > 100 µM in the test with HT29 colon; > 100 µM in the test on CAKI-1 renal; 73.9 µM in the test with MDA-MB-231 breast; 37.8 µM in the test on UACC-62 melanoma.

For the molecule `COc1ccc(OC)c(-c2nc3ccccc3c(=O)[nH]2)c1`, the TGI in the test with COLO 205 colon, with MDA-N, with ACHN renal, in the test with PC-3 prostate, with SK-MEL-5 melanoma and with BT-549 breast was > 100 µM in each case. For the same molecule, the TGI with NCI-H23 lung, with K-562 leukemia, with SW-620 colon, with MDA-MB-435, in the test with SF-268 CNS and in the test on HT29 colon was > 100 µM each time. Moreover, the TGI with CAKI-1 renal, with MDA-MB-231 breast and in the test with UACC-62 melanoma was > 100 µM throughout.

Take `CCOC(CI)O[C@@H]1C=C[C@H](OC(C)=O)C1` (stereo partly drawn): the TGI in the test on COLO 205 colon, in the test on MDA-N, in the test with ACHN renal, with PC-3 prostate, in the test on BT-549 breast and in the test on NCI-H23 lung was > 100 µM in each case. The TGI in the test on K-562 leukemia, in the test with SW-620 colon, with MDA-MB-435, with SF-268 CNS, in the test with SK-MEL-28 melanoma and in the test with HT29 colon was > 100 µM throughout. Moreover, the TGI in the test with CAKI-1 renal, in the test with MDA-MB-231 breast and in the test with UACC-62 melanoma was > 100 µM throughout.

As for `COc1c(C)c(C/C=C(\C)CCCCO)c(OC)c(OC)c1OC`, the TGI with COLO 205 colon, in the test on MDA-N, in the test with ACHN renal, with PC-3 prostate, in the test with SK-MEL-5 melanoma and in the test with BT-549 breast was > 100 µM throughout. Moreover, the TGI in the test with NCI-H23 lung, in the test on K-562 leukemia, with SW-620 colon, in the test on HOP-92 NSCLC, with MDA-MB-435 and in the test with SF-268 CNS was > 100 µM in each case. The TGI in the test on NCI-H522 lung, in the test on TK-10 renal, in the test on HT29 colon, in the test with MDA-MB-231 breast and in the test on UACC-62 melanoma was > 100 µM in each case.

As for `Cc1ccc(CC2(OCCN(C)C)CCC(C(C)(C)C)CC2)cc1` (stereo not drawn), the TGI with COLO 205 colon is 3.98 µM and 3 µM; in the test on MDA-N, 6.96 µM and 5.28 µM; with ACHN renal it was 19.1 µM and 20.5 µM; in the test with PC-3 prostate it was 13.7 µM and 15.2 µM; in the test with SK-MEL-5 melanoma it was 2.94 µM and 2.97 µM; with BT-549 breast it was 16.1 µM and 19.8 µM. The TGI is 25.6 µM and 24.4 µM with NCI-H23 lung; 3.97 µM and 4.45 µM with K-562 leukemia; 5.84 µM and 8 µM in the test on SW-620 colon; 5.79 µM and 5.96 µM in the test with MDA-MB-435; 27.9 µM and 23.5 µM with SF-268 CNS; 4.08 µM and 4.04 µM in the test with SK-MEL-28 melanoma. The total growth inhibition concentration (TGI) with NCI-H522 lung was 9.28 µM and 10.8 µM; in the test with TK-10 renal it was 17.2 µM and 19.6 µM; in the test on HT29 colon it was 5.15 µM and 5.9 µM; with CAKI-1 renal, 17.7 µM and 15.3 µM; in the test on MDA-MB-231 breast it was 19 µM and 18.8 µM; in the test on UACC-62 melanoma, 5.48 µM and 10 µM.

Turning to `O=C1Oc2ccccc2C(=O)/C1=C/N1C(=O)N/C(=C\c2cccc(O)c2)C1=O`, the TGI is > 100 µM with COLO 205 colon; > 100 µM with MDA-N; > 100 µM with ACHN renal; > 100 µM in the test with PC-3 prostate; > 100 µM in the test with SK-MEL-5 melanoma; 73.2 µM in the test with BT-549 breast. Besides, the TGI in the test on NCI-H23 lung, in the test with SW-620 colon, in the test with HOP-92 NSCLC, with MDA-MB-435, in the test with SK-MEL-28 melanoma and in the test with TK-10 renal was > 100 µM throughout. In addition, the TGI in the test on HT29 colon, in the test with CAKI-1 renal and with MDA-MB-231 breast was > 100 µM throughout.

With `CC1=C(C#N)C2C(=C(N)Oc3ccccc32)C(N)=N1` (stereo not drawn), the TGI with COLO 205 colon is 67 µM; with MDA-N it was > 100 µM; in the test on ACHN renal, 81.8 µM; in the test on PC-3 prostate, > 100 µM; with SK-MEL-5 melanoma it was 49.5 µM; with BT-549 breast it was 93.5 µM. Also, the TGI with K-562 leukemia was 90.8 µM; with SW-620 colon it was > 100 µM; in the test with MDA-MB-435 it was > 100 µM; in the test with SF-268 CNS, 67.4 µM; in the test with NCI-H522 lung it was 36.2 µM; in the test on TK-10 renal it was 47.5 µM. For the same molecule, the TGI in the test with HT29 colon was 87.7 µM; with CAKI-1 renal, 53.9 µM; in the test on MDA-MB-231 breast, 66.6 µM; in the test on UACC-62 melanoma, 48.4 µM.

On to `COc1ccc2oc(=O)c3c(c2c1C)OC(C)(C)C=C3`, for which the concentration for total growth inhibition (TGI) in the test on COLO 205 colon, with MDA-N, in the test with ACHN renal, in the test with PC-3 prostate, with SK-MEL-5 melanoma and with BT-549 breast was > 100 µM in each case. Also, the TGI with NCI-H23 lung, with K-562 leukemia, in the test on SW-620 colon, in the test with MDA-MB-435, with SF-268 CNS and with SK-MEL-28 melanoma was > 100 µM throughout. In addition, the TGI in the test with NCI-H522 lung, with TK-10 renal, with HT29 colon, with CAKI-1 renal, in the test on MDA-MB-231 breast and with UACC-62 melanoma was > 100 µM throughout.

`Nc1ccc(Nc2c3ccccc3nc3ccccc23)cc1`: the TGI in the test with COLO 205 colon was > 10 µM; in the test on MDA-N it was > 10 µM; in the test with ACHN renal, 4.58 µM; with PC-3 prostate it was > 10 µM; in the test on SK-MEL-5 melanoma it was > 10 µM; in the test with BT-549 breast, > 10 µM. For the same molecule, the TGI in the test with NCI-H23 lung, in the test with K-562 leukemia, in the test with SW-620 colon, with MDA-MB-435, in the test with SF-268 CNS and in the test with SK-MEL-28 melanoma was > 10 µM in each case. Besides, the TGI in the test on NCI-H522 lung was > 10 µM; in the test on TK-10 renal, > 10 µM; in the test on HT29 colon it was > 10 µM; in the test with CAKI-1 renal, 6.94 µM; with MDA-MB-231 breast it was > 10 µM; in the test on UACC-62 melanoma it was 5.22 µM.

For `COc1ccc2oc(=O)c(CC=C(C)C)c(O)c2c1C`, the TGI in the test with COLO 205 colon, in the test on MDA-N, with ACHN renal, in the test with PC-3 prostate, in the test with SK-MEL-5 melanoma and with BT-549 breast was > 100 µM in each case. Further, the TGI in the test with NCI-H23 lung, with K-562 leukemia, with SW-620 colon, in the test on MDA-MB-435, in the test on SF-268 CNS and with SK-MEL-28 melanoma was > 100 µM each time. The TGI in the test on NCI-H522 lung, with TK-10 renal, with HT29 colon, with CAKI-1 renal, in the test on MDA-MB-231 breast and with UACC-62 melanoma was > 100 µM each time.

The values above are taken from PubChem BioAssay (NCI).
